{"source": "patent US6159940A", "about": "“Method for modulating hemopoiesis” (Immunotech Developments Inc., priority 1999, dated 2000)", "key": {"[1]": {"tested_on": "lymphocytes in guinea pigs", "assay": "E-rosette formation test after trypsin treatment", "format": "cell-based", "description": "The biological action of the novel peptide was studied in guinea pigs in the conventional E-rosette formation test."}, "T-cell": {"tested_on": "T-cell", "assay": "T-cell count in spleen, spontaneous rosette formation with sheep erythrocytes (E-FRC)", "format": "in vivo, (CBA×C57BL)F1 mice", "protocol": "Females and male (CBA×C57BL)F1 mice, aged about 2.5 months weighing about 20 g, were irradiated with gamma-rays using a \"Luch-1\" apparatus. Immunological activity was assessed according to Jerne (Antibody Forming Cells count--AFC). T-cell count in spleen was determined by the method of spontaneous rosette formation with sheep erythrocytes (E-FRC). The peptide was injected intramuscularly.\nMice were irradiated in a dose of 2 Gy, the peptide was injected in the dose of 10 μg/kg according to the following scheme (to determine T-cell count by the method of spontaneous rosette formation): 1 time--an hour after the irradiation; 2 times--an hour, and a day after irradiation; 3 times--an hour, a day, and two days after the irradiation; 4 times--an hour, a day, two days and three days after the irradiation. The intact mice recieved the peptide 3 or 4 times. The control group (2 Gy) recieved injections of physiological solution according to the same schedule. On completion of the treatment course, 10 mice from each group were immunized with sheep erythrocytes (SE) and 4-5 days later AFC counts were determined in their spleens. The rest of the mice were used to find T-cell count by the method of spontaneous rosette formation. The state of the organs of immune system (spleen and thymus) in mice with radiation immunodeficiency against the background of H-Ile-Glu-Trp-OH treatment was also listed by nucleated cell counts in thymus and spleen per mg of organ weight. AFC/mg Spleen weight is presented as an average of two experiments."}, "CFU-S": {"tested_on": "CFU-S", "assay": "Endogenous spleen colonies in irradiated mice (6 Gy)", "format": "in vivo", "settings": "10 μg/kg IM, Day 9", "protocol": "Test mice were irradiated in the dose of 6 Gy Beginning from the first hour after the irradiation, the mice received once daily IM injections of 10 μg/kg H-Ile-Glu-Trp-OH. Injections were made 1, 2, 3, or 4 times. The mice were killed on Day 9, spleens were taken out and fixed in Buene's solution, the colonies were counted. 110 mice were used in the test."}, "Thymoma EL-4 cells": {"tested_on": "Thymoma EL-4 cells", "assay": "Thymoma EL-4 cells incubated with peptide and oxyurea, transplanted to mice: tumor growth and survival", "format": "in vivo, C57B1 mice", "protocol": "The Thymoma EL-4 cells were extracted from the abdomen cavity of C57B1 mice at the 7th day after transplantation. The suspension was washed by centrifugation in the medium RPMI. Then the cells were resuspended in the growth medium (RPMI+10% of embryo serum+0.1% penicillin/streptomycin) and were split in culture flasks 5 ml each ([…] per flask). 2 mg of the preparation were added (20 μl) to each probe. After 18 hours of incubation (37 degrees Celsius CO2), OU was added to the half of probes (1 mg per 5 ml). Incubation was done for 1 more hour in the same conditions and then cells were washed out by centrifugation in the medium RPMI. The precipitated cells were resuspended in calculation 1 ml per 0.2 ml of RPMI medium and then transplanted to the mice C57B1 under the back skin.\nThe taking of the measurements of the size of the tumor was started after the knot became visible. The tumor was measured every day until it was impossible to measure. The survival ability of the mice was examined during 60 days after transplantation. Mice that survived after this period were considered to be cured. Each experimental group consisted of 6 animals."}, "tumor cells EL-4": {"tested_on": "tumor cells EL-4", "assay": "Thymoma EL-4 cells incubated with peptide and heated, transplanted to mice: tumor size", "format": "in vivo, C57B1 mice", "settings": "for Tumor size: EL-4, 13th day", "protocol": "Incubation of the tumor cells with the tested drugs were performed the same way as described above in the experiments with OU. After 18-hour incubation, the cells were washed in the medium RPMI, and then resuspended in the concentration of 5 ml/1 ml in plastic test tubes of total volume of 2 ml each. Then the cells were heated for 1 hour at 43 degrees Celsius, and transplanted under the back skin of the mice C57B1. The growth of the tumor was examined the same way as described above."}, "[2]": {"assay": "Chronic toxicity, general state and pathomorphologic investigation", "format": "in vivo", "description": "The general state of the animals, behaviour, motor function, cardio-vascular, respiratory activity, liver and kidney functions were within the range of physiologic fluctuations."}, "[3]": {"assay": "Chronic toxicity: peritheric blood and internals, 30 days, guinea pigs", "format": "in vivo", "settings": "once daily for 30 days", "protocol": "II.1 The H-Ile-Glu-Trp-OH effect on the composition and properties of the peritheric blood, the morphological state of the internals.\nThe drug was injected once daily for 30 days.\nThe test animals were 20 rabbits and 40 guinea pigs."}, "[4]": {"assay": "Toxicity study: single 0.15 g/kg or 10 μg/kg for 5 days, cellular systems on day 14", "format": "in vivo, male mice", "protocol": "To determine the peptide toxicity, male mice received single injections of the peptide in the dose of 0.15 g per kg body weight, which was 15,000 times as large as the therapeutic dose with favourable effect in post-irradiation regeneration of hemopoietic progenitors. The second group of mice received daily peptide injections in the dose of 10 μg/kg (the therapeutical dose) for 5 days. […] On the 14-th day after the peptide injection 10 mice from each group were killed to determine the condition of their cellular systems. Nucleated cells were counted in spleen and thymus (per mg of organ weight), bone marrow, blood (per ml). Erythrocyte count and hemoglobin level were determined."}, "[5]": {"settings": "60 days after transplantation of treated EL-4 cells"}, "[6]": {"settings": "10 mcg/kg × 5 injections, day 14"}}, "data": [{"substance": "H-Ile-Glu-Trp-OH", "values": [{"measurement": "in vitro activity relative to other known compounds", "setting": "[1]", "value": "10^3 times"}, {"measurement": "E-rosette formation after treatment with trypsin and compound", "setting": "[1]; 10^-6 mg/ml", "value": 61.4}, {"measurement": "E-rosette formation after treatment with trypsin and compound", "setting": "[1]; 10^-7 mg/ml", "value": 63.9}, {"measurement": "E-rosette formation after treatment with trypsin and compound", "setting": "[1]; 10^-8 mg/ml", "value": 64.8}, {"measurement": "E-rosette formation after treatment with trypsin and compound", "setting": "[1]; 10^-9 mg/ml", "value": 60.2}, {"measurement": "E-rosette formation after treatment with trypsin and compound", "setting": "[1]; 10^-10 mg/ml", "value": 37.5}, {"measurement": "E-rosette formation after treatment with trypsin and compound", "setting": "[1]; 10^-11 mg/ml", "value": 40.0}, {"measurement": "E-rosette formation after treatment with trypsin and compound", "setting": "[1]; 10^-12 mg/ml", "value": 34.3}, {"measurement": "T-Cell Count, column 1", "setting": "T-cell; 2 Gy, 1 Injection", "value": "34.5 ± 1.7 10^3 /mg Spleen"}, {"measurement": "T-Cell Count, column 1", "setting": "T-cell; 2 Gy, 2 Injection", "value": "35.6 ± 1.8 10^3 /mg Spleen"}, {"measurement": "T-Cell Count, column 1", "setting": "T-cell; 2 Gy, 3 Injection", "value": "45.3 ± 3.4 10^3 /mg Spleen"}, {"measurement": "T-Cell Count, column 2", "setting": "T-cell; 2 Gy, 3 Injection", "value": "23.2 ± 3.7 10^3 /mg Spleen"}, {"measurement": "T-Cell Count, column 1", "setting": "T-cell; 2 Gy, 4 Injection", "value": "48.4 ± 2.5 10^3 /mg Spleen"}, {"measurement": "T-Cell Count, column 2", "setting": "T-cell; 2 Gy, 4 Injection", "value": "13.0 ± 0.8 10^3 /mg Spleen"}, {"measurement": "T-Cell Count, column 2", "setting": "T-cell; intact mice, 3 Injections", "value": "12.7 ± 1.5 10^3 /mg Spleen"}, {"measurement": "T-Cell Count, column 2", "setting": "T-cell; intact mice, 4 Injections", "value": "18.7 ± 5.8 10^3 /mg Spleen"}, {"measurement": "Colony (endogenous spleen colonies)", "setting": "CFU-S; 1 times", "value": "3.3 ± 0.6"}, {"measurement": "Colony (endogenous spleen colonies)", "setting": "CFU-S; 2 times", "value": "4.4 ± 0.5"}, {"measurement": "Colony (endogenous spleen colonies)", "setting": "CFU-S; 3 times", "value": "5.0 ± 0.7"}, {"measurement": "Colony (endogenous spleen colonies)", "setting": "CFU-S; 4 times", "value": "5.2 ± 0.8"}, {"measurement": "% of Survival", "setting": "Thymoma EL-4 cells; [5]", "value": 16.6, "unit": "%"}, {"measurement": "Number of Survived Mice From 6", "setting": "Thymoma EL-4 cells; [5]", "value": "1/6"}, {"measurement": "extension of lifetime in combination with cytostatics", "setting": "Thymoma EL-4 cells; mice with Thymoma EL-4", "value": 15, "unit": "days"}, {"measurement": "increase in lifetime versus control", "setting": "Thymoma EL-4 cells; mice with Thymoma EL-4", "value": 4, "unit": "days"}, {"measurement": "tumor growth", "setting": "Thymoma EL-4 cells; thymoma cells incubated with H-Ile-Glu-Trp-OH, then OU", "value": "depression of the tumor growth on the 12th day is most definite"}, {"measurement": "Tumor size", "setting": "tumor cells EL-4; + Heating (1 hour at 43 degrees Celsius)", "value": "No Tumor"}, {"measurement": "Tumor size", "setting": "tumor cells EL-4; no heating", "value": 188.7, "unit": "mm squared"}, {"measurement": "tumor formation", "setting": "tumor cells EL-4; in vitro treatment followed by heating, 21st day", "value": "no tumor formation was observed"}, {"measurement": "pathomorphologic investigation (with histologic investigation of organs)", "setting": "[2]; chronic toxicity", "value": "failed to find any pathologic processes"}, {"measurement": "side effects", "setting": "[2]; doses 10-100 times as large as the therapeutic ones", "value": "no side effects were observed"}, {"measurement": "pathologic changes in the body or peritheric blood", "setting": "[3]", "value": "did not cause any pathologic changes"}, {"measurement": "Survival for 30 days", "setting": "[4]; 10 μg/kg daily for 5 days", "value": "Not an animal died"}, {"measurement": "Karyocyte Count, Spleen", "setting": "[4]; 0.15 g/kg, day 14", "value": "2280 ± 30 10^3 /mg"}, {"measurement": "Karyocyte Count, Thymus", "setting": "[4]; 0.15 g/kg, day 14", "value": "3030 ± 250 10^3 /mg"}, {"measurement": "erythrocyte", "setting": "[4]; 0.15 g/kg, day 14", "value": "8100 ± 600 10^3"}, {"measurement": "hemoglobin", "setting": "[4]; 0.15 g/kg, day 14", "value": "10.8 ± 0.7", "unit": "g/dL"}, {"measurement": "karyocyte count bone marrow", "setting": "[4]; 0.15 g/kg, day 14", "value": "2.39 ± 0.25 × 10^7 /femur"}, {"measurement": "karyocytes %", "setting": "[4]; 0.15 g/kg, day 14", "value": "62.0 ± 3.4", "unit": "%"}, {"measurement": "karyocytes (blood)", "setting": "[4]; 0.15 g/kg, day 14", "value": "5.4 ± 0.7 10^3"}, {"measurement": "karyocytes absolute", "setting": "[4]; 0.15 g/kg, day 14", "value": 3348}, {"measurement": "weight", "setting": "[4]; 0.15 g/kg, day 14", "value": "21-22.0"}, {"measurement": "Karyocyte Count, Spleen", "setting": "[4]; [6]", "value": "1760 ± 100 10^3 /mg"}, {"measurement": "Karyocyte Count, Thymus", "setting": "[4]; [6]", "value": "2780 ± 340 10^3 /mg"}, {"measurement": "erythrocyte", "setting": "[4]; [6]", "value": "8400 ± 200 10^3"}, {"measurement": "hemoglobin", "setting": "[4]; [6]", "value": "11.5 ± 0.2", "unit": "g/dL"}, {"measurement": "karyocyte count bone marrow", "setting": "[4]; [6]", "value": "1.94 ± 0.2 × 10^7 /femur"}, {"measurement": "karyocytes %", "setting": "[4]; [6]", "value": "58.6 ± 3.6", "unit": "%"}, {"measurement": "karyocytes (blood)", "setting": "[4]; [6]", "value": "10.1 ± 0.8 10^3"}, {"measurement": "weight", "setting": "[4]; [6]", "value": "21-22.5"}, {"measurement": "LD50", "setting": "[4]; not found", "value": "> 15,000 as large as the therapeutical one"}, {"measurement": "growth of average weight by the end of the study", "setting": "[4]; same as in control", "value": 2, "unit": "g"}, {"measurement": "Survival for 30 days", "setting": "[4]; single injection 0.15 g per kg", "value": "Not an animal died"}]}]}
